According to a melting point compilation (Tetko et al.; mined from patent text by program, amines drawn as free bases though some values may be those of a salt):

| SMILES | melting point |
| --- | --- |
| CC(=O)NCCC1CCc2ccc3nc(C4CC4)oc3c21 (centres undefined) | 92 to 95 °C |
| Cn1nc(C(=O)OCC23CCCN(CC2)C3)c2ccccc21 (centres undefined) | 93 to 95 °C |
| COc1cc(C(=O)N2CCC(N3CCC(Oc4ccc(F)c(F)c4)CC3)C2)ccc1N (centres undefined) | 138 to 139 °C |
| CC(C)(C)c1ccc(-c2cc(=O)cc(N3CCOCC3)o2)cc1 | 156 °C |
| Cc1cc(OC(F)F)nc(NC(=O)Oc2ccccc2)n1 | 56 to 58 °C |
| COC(=O)c1c(C(=O)OC)c(-c2ccc(OC)c(OC)c2)c2sccc2c1O | 147 to 148 °C |
| CC1NC(=O)NN=C1c1ccc(Cl)cc1 (centres undefined) | 221 to 222 °C |
| CCC(C)c1nn(-c2ccc(C(F)(F)F)cn2)cc1CO (centres undefined) | 76 to 77 °C |
| CCOc1ccc2c(c1)n(C13CC4CC(CC(C4)C1)C3)c(=O)n2S(=O)(=O)c1ccc([N+](=O)[O-])cc1OC | 231 °C |
| CC(C)(C)OC(=O)NNC(=O)c1cc(OCc2ccccc2)c(OCc2ccccc2)c(CSc2ccncc2)n1 | 181 to 182 °C |
| CC(C)(C)c1ccc(OCCCCCN2CCN(c3nccs3)CC2)cc1 | 71 to 73 °C |
| CC(C)Cn1cnc2c(N)nc3ccc(OCc4ccccc4)cc3c21 | 214 to 216 °C |
| O=C1c2ccccc2N(c2ccc(F)cc2)C2=NCCN12 | 278 to 280 °C |
| O=c1cc2c(nn1-c1ccc(Cl)cc1)-c1ccccc1S(=O)CC2 (centres undefined) | 233 to 234 °C |
| Cc1ccc(-n2c(-c3ccc(Br)cc3)ccc2-c2ccc(Br)cc2)cc1 | 262 to 264 °C |
| CN(C)c1ccc(C=CC(=O)c2ccc3c(c2)CCCC3)cc1 | 134 to 135 °C |
| CC(=O)NCn1cc(-c2nc(Nc3ccccn3)sc2C)cn1 | 175 °C |
| O=C(Nc1ccc(Oc2ccc(Cl)cc2)nc1)N1CCc2ccccc2CC1 | 135 to 137 °C |
| CNc1nccc(-c2cc(NCCCNCCCOC)c3cc(OC)ccc3c2)n1 | 130 to 132 °C |
| CC(c1oc2ccc(F)cc2c(=O)c1-c1cccc(F)c1)n1cnc2c(N)ncnc21 (centres undefined) | 252 to 255 °C |
| CC(=O)COc1cc(=O)oc2ccccc12 | 163 to 165 °C |
| OC1Cc2cc(I)ccc2Sc2ccccc21 (centres undefined) | 131 to 133 °C |
| Cc1nc(/C=C/c2cccc(Cl)c2F)no1 | 95 to 98 °C |
| Cn1c2ccccc2c2oc(C#N)cc(=O)c21 | 190 to 192 °C |
| CS(=O)(=O)Nc1cccc(Nc2nc(NC3CCCC3)c3nc[nH]c3n2)c1 | 234 to 239 °C |

| SMILES | melting point |
| --- | --- |
| Cc1c(C2CCN(C)CC2)[nH]c(=O)c2ccccc12 | 202 to 204 °C |
| Fc1ccc2c(-c3ccncc3)noc2c1 | 138 to 146 °C |
| OCc1ccc(Br)nc1 | 49 to 51 °C |
| COc1cccc([C@H]2O[C@H](CC(=O)Nc3nc(C(=O)O)cs3)C(=O)N(CC(C)(C)CO)c3ccc(Cl)cc32)c1OC | 277 to 278 °C |
| Cc1cc(-n2cccn2)c2cccc(OCc3c(Cl)ccc(S(=O)(=O)N4CCC[C@H]4C(=O)NCC4CCN(CCCO)CC4)c3Cl)c2n1 | 112 °C |
| CCCCNC(=O)Nc1ccc(OCC)cc1C(=O)NCC1CCN(C(c2ccccc2)c2ccccc2)CC1 | 191 to 193 °C |
| CC(=O)NC(CC(=O)O)CN(C)C (centres undefined) | 202 °C |
| COc1cc(OC)c(-c2cc3ccccc3s2)cc1C=O | 134 to 136 °C |
| Clc1ccc(Oc2cc(Br)c(Cl)cc2OCc2ccccc2)c(Cl)c1 | 86 to 88 °C |
| COc1ccc2c(c1)C(C)N(C)C(=O)C2c1cc(OC)c(OC)c(OC)c1 (centres undefined) | 135 to 140 °C |
| COC1CN(C(=O)c2cc(-c3ccccc3)c(=O)n3c2-c2sccc2C3)C1 | 192 to 193 °C |
| COc1cc(O)c2c(c1)OC(C(C)(C)C=O)CC2=O (centres undefined) | 93 to 94 °C |
| Cc1c(N2CCC(N)C2)c(F)cc2c(=O)c(C(=O)O)cn(C3COC3)c12 (centres undefined) | > 230 °C |
| O=C1CC2(CC2)CC(=O)O1 | 102 °C |
| CNC1(C)CN(c2cc3c(cc2F)c(=O)c2c(=O)[nH]sc2n3C2CC2)C1 | 286 to 290 °C |
| Cc1cc(-c2nncc3c(-c4ccco4)c(OCc4ncnn4C)nn23)no1 | 226 to 228 °C |
| CC(=NO)c1nccc(OCC(F)(F)F)n1 | 179 to 181 °C |
| CCOCCOc1ccc(CCNC(=O)c2cnc3ccccc3c2)cc1S(=O)(=O)NC(=S)NC | 88 to 91 °C |
| NS(=O)(=O)c1ccc(-c2cc(-c3nc(-c4ccc(C(F)(F)F)nc4)cc(C(F)F)n3)ccn2)s1 | 270 °C |
| CC1(OCCN(Cc2ccccc2)C(=O)C(F)(F)F)C=CC=C([N+](=O)[O-])C1NC(=O)C(F)(F)F (centres undefined) | 90 to 92.5 °C |
| COc1ccc(CCC(=O)O)cc1OCCCc1cn(-c2ccc(C(F)(F)F)cn2)nc1C(C)C | 93 to 94 °C |
| NC(=S)Nc1ccccc1-c1cccc(F)c1 | 157 to 159 °C |
| CCCOc1cc([N+](=O)[O-])ccc1[N+](=O)[O-] | 52 to 54 °C |
| CCCn1c(=O)c2[nH]c(-c3ccoc3)nc2n(CCC)c1=O | 244 to 245 °C |
